Experimental data from US11273172B2, “Synergistic combination of oligonucleotides and chemotherapeutic for treating cancer” (THE BOARD OF TRUSTEES OF THE UNIVERSITY OF ILLINOIS, priority 2017, dated 2022).
Values joined by “and” are separate entries in the source; they are usually repeats but may differ in a detail not shown here. Equal entries are not always repeated.

B1: TRAIL: cytotoxic protein which induces apoptosis in tumor cells, but not in normal cells (protein, UniProt P50591 1-281, looked up)
Tumor necrosis factor ligand …: MAMMEVQGGPSLGQTCVLIVIFTVLLQSLCVAVTYVYFTNELKQMQDKYSKSGIACFLKEDDSYWDPNDEESMNSPCWQVKWQLRQLVRKMILRTSEETISTVQEKQQNISPLVRERGPQRVAAHITGTRGRSNTLSSPNSKNEKALGRKINSWESSRSGHSFLSNLHLRNGELVIHEKGFYYIYSQTYFRFQEEIKENTKNDKQMVQYIYKYTSYPDPILLMKSARNSCWSKDAEYGLYSIYQGGIFELKENDRIFVSVTNEHLIDMDHEASFFGAFLVG

How the values were obtained:
[1] = test system: AGS gastric adenocarcinoma cells; test: MTT cell death assay, chemotherapeutic with and without MADD siRNA knockdown; format: cell-based; conditions: siRNA 10 nM
Description: (§1) Cells are cultured and maintained at 37° C. in a humidified atmosphere containing 5% CO2 as described above. […] After 12-18 hours (Day 1), cells are transfected with Scramble or MADD siRNA at 10 nM concentration. The sequences of siRNAs (double-stranded) used are:
(§2) On Day 4, when cells are properly adhered and retained their shape in 96-well plates, drugs are added. All drugs are diluted in complete media on the same day prior to the addition to the cells. In untreated cells, media is replaced with complete media. Two hundred μl volume of media (with or without drugs) is used for the drug treatment assay. Plates are incubated 24 hours, 48 hours and 72 hours at 37° C. in humidified CO2 incubator.
(§3) An MTT assay is performed to determine relative survival after drug treatment as described above. MTT (3-[4,5-Dimethylthiazol-2-yl]-2,5-diphenyltetrazolium bromide; Thiazolyl blue) is purchased from Sigma Aldrich (Cat number: M5655). […] Ten μl of MTT solution is added per well of 96-well plate. Plates are incubated for 2 hours at 37° C. in the humidified CO2 incubator. After 2 hours, media is aspirated using vacuum inside the biosafety hood. Purple colored crystals formed in viable cells are dissolved by adding 100 μl of Dimethyl sulfoxide (Thermo Fisher Scientific; Cat number D128-500) Plates are kept on shaker for 10 minutes for compete dissolution of crystals and absorbance is recorded at 595 nm using Bio-Rad iMark microplate reader. Data is analyzed in MICROSOFT EXCEL® software. Relative survival is calculated with respect to absorbance of control (untreated cells) to determine the effect of transfection as well as combination treatment.
(§4) Each data set takes into account any spontaneous cell death which is observed upon transfection with Scramble siRNA; the amount of spontaneous cell death from Scramble siRNA transfection (baseline) is subtracted from the amount of cell death observed in each siRNA transfection reaction to yield a Net Percent (Net %) cell death after accounting for Scrambled siRNA-induced cell death.
(§5) Cells are cultured and maintained at 37° C. in a humidified atmosphere containing 5% CO2 as described above. […] After 12-18 hours (Day 1), cells are transfected with Scramble or MADD siRNA at 10 nM concentration. The sequences of siRNAs (double stranded) used are:
as §3, with “D128-500).” for “D128-500)”
(§6) On Day 4, when cells are properly adhered and retained their shape in 96-well plates, drugs are added. All drugs are diluted in complete media on the same day prior to the addition to the cells. In untreated cells, media is replaced with complete media. Two hundred μl volume of media (with or without drugs) is used for the drug treatment assay. Plates are incubated 24 h, 48 h and 72 hours at 37° C. in humidified CO2 incubator.

[2] = test system: PLC/PRF/5 hepatic cancer cells; test: as above; format: cell-based; conditions: siRNA 10 nM
Description: as §1, §2, §3, §4, §5
as §3, with “D128-500).” for “D128-500)”
as §6

[3] = Sorafinib 0.625 μM, 48 hours post Sorafinib treatment
[4] = Sorafinib 0.375 μM, 24 hours post Sorafinib treatment
[5] = 5-flurouracil 25 μM, 72 hours post 5-flurouracil treatment
[6] = Gemcitabine 1 μM, 48 hours post Gemcitabine treatment
[7] = TRAIL 6.25 ng/ml, 72 hours post TRAIL treatment
[8] = Cisplatin 1.875 μM, 24 hours post Cisplatin treatment
[9] = Gemcitabine 0.03125 μM, 24 hours post Gemcitabine treatment
[10] = TRAIL 50 ng/ml, 24 hours post TRAIL treatment

Row | Molecule | Net % cell death after accounting for Scrambled siRNA [1, 3] | Observed % Cell death [1, 3] [%] | Net % cell death after accounting for Scrambled siRNA [2, 4] | Observed % Cell death [2, 4] [%] | Observed % Cell death [1, 5] [%] | Net % cell death after accounting for Scrambled siRNA [1, 6] | Observed % Cell death [1, 6] [%] | Observed % Cell death [1, 7] [%] | Net % cell death after accounting for Scrambled siRNA [2, 8] | Observed % Cell death [2, 8] [%] | Net % cell death after accounting for Scrambled siRNA [2, 9] | Observed % Cell death [2, 9] [%] | Net % cell death after accounting for Scrambled siRNA [2, 10] | Observed % Cell death [2, 10] [%] | Net % cell death after accounting for Scrambled siRNA [1, 5] | Net % cell death after accounting for Scrambled siRNA [1, 7]
1 | CNC(=O)c1cc(Oc2ccc(NC(=O)Nc3ccc(Cl)c(C(F)(F)F)c3)cc2)ccn1 [Sorafinib] | 12% | 12 | 13% | 13 | – | – | – | – | – | – | – | – | – | – | – | –
2 | MADD siRNA: siRNA targeting exon 13L of the MADD splice variant of the IG20 gene; SEQ ID NO: 4, 5′-GAUUGUCAUAGAUUCGCCGTT-3′ (chemistry not given here) | 5% and 14 − 9 = 5% | 14 | 20% and 25 − 5 = 20% | 25 | 20 | 5% and 14 − 9 = 5% | 14 | 20 | 20% and 25 − 5 = 20% | 25 | 20% and 25 − 5 = 20% | 25 | 20% and 25 − 5 = 20% | 25 | – | –
3 | Scrambled siRNA: non-specific Scramble siRNA, negative control; SEQ ID NO: 5, 5′-UUGCUAAGCGUCGGUCAAUTT-3′ (chemistry not given here) | 9 − 9 = 0% | 9 | 5 − 5 = 0% | 5 | 17 | 9 − 9 = 0% | 9 | 17 | 5 − 5 = 0% | 5 | 5 − 5 = 0% | 5 | 5 − 5 = 0% | 5 | 17 − 17 = 0% | 17 − 17 = 0%
4 | B1 | – | – | – | – | – | – | – | 7 | – | – | – | – | 0% | 0 | – | 7%
